Several values for one entry are separate records, joined by “and”; a condition that tells them apart may be missing. Identical values can stand only once.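 Five concentrations, 48 hours, 96-well plates. Abbreviation: GI50, concentration required for 50% inhibition of growth.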 Activity calls are given as the source filed them. No stated cut-off is given here; in the data, active = GI50 up to about 1.1 µM and inactive = higher.

Here are results for twelve compounds from ChEMBL document CHEMBL1201862, “PubChem BioAssay data set” (2004).

Test systems include A549; CCRF-CEM; DU-145; EKVX; HCC 2998; HCT-15; MCF7; MDA-MB-231; MOLT-4; NCI-H226; NCI-H460; OVCAR-3; RPMI-8226; SF-268; SF-295; SK-MEL-28; SNB-19; TK-10; SR.
Experiment in all cases: NCI anticancer screen, dose series, 48 h

On to `CCC/C(Cl)=N\OC(=O)Nc1ccc(F)c([N+](=O)[O-])c1`, for which the GI50 in the assay with A549 was 24.7 µM (inactive); with CCRF-CEM, 3.74 µM (inactive); in the assay with DU-145 it was 14.7 µM (inactive); in the assay on EKVX it was 16.2 µM (inactive); with HCC 2998, 14.5 µM (inactive); in the assay with HCT-15, 16.9 µM. Besides, the GI50 was 25.5 µM (inactive) in the assay on MCF7; 20.3 µM (inactive) in the assay on MDA-MB-231; 3.41 µM (inactive) in the assay on MOLT-4; 24.2 µM (inactive) with NCI-H226; 12.5 µM (inactive) with NCI-H460; 15.6 µM (inactive) in the assay on OVCAR-3. Further, the GI50 is 9.51 µM (inactive) in the assay on RPMI-8226; 14.2 µM (inactive) in the assay on SF-268; 33.8 µM (inactive) with SF-295; 18 µM (inactive) with SK-MEL-28; 15.2 µM (inactive) with SNB-19; 17 µM (inactive) with TK-10.

With `Cc1ccc(S(=O)(=O)SC/C=C\CSS(=O)(=O)c2ccc(C)cc2)cc1`, the GI50 in the assay on A549 was 31.5 µM (inactive) and 35.7 µM (inactive); in the assay with CCRF-CEM it was 0.262 µM (active); in the assay with DU-145, 16.4 µM (inactive); in the assay on EKVX it was > 92.7 µM (inactive) and 53.6 µM (inactive); in the assay on HCC 2998, 49.1 µM (inactive) and 55 µM (inactive); with MCF7, 3.51 µM (inactive). The GI50 was 16.4 µM (inactive) in the assay on MDA-MB-231; 23.1 µM (inactive) and 24.3 µM (inactive) in the assay on NCI-H226; 30.3 µM (inactive) and 35.6 µM (inactive) with NCI-H460; 24.4 µM (inactive) and 16 µM (inactive) with OVCAR-3; 26.3 µM (inactive) and 19.8 µM (inactive) with SF-268; 19.1 µM (inactive) and 37.7 µM (inactive) with SF-295. For the same compound, the GI50 in the assay with SNB-19 is 34.2 µM (inactive) and 29.6 µM (inactive).

For the compound `O=C1CCCc2c1c1c(n2Cc2ccccc2)-c2ccccc2C1=O`, the GI50 with A549 was 23 µM (inactive); in the assay on CCRF-CEM, 31 µM (inactive); in the assay on DU-145 it was 28.9 µM (inactive); in the assay on EKVX, 27.7 µM (inactive); with HCC 2998, 15.2 µM (inactive); in the assay with HCT-15, 15 µM. Besides, the GI50 was 29 µM (inactive) in the assay with MCF7; 15.4 µM (inactive) in the assay with MDA-MB-231; 21.6 µM (inactive) with NCI-H226; 25.8 µM (inactive) in the assay on NCI-H460; 16 µM (inactive) in the assay with OVCAR-3; 3.14 µM (inactive) with RPMI-8226. The GI50 in the assay on SF-268 was 22.2 µM (inactive); in the assay with SF-295, 15.7 µM (inactive); in the assay with SK-MEL-28, 33.3 µM (inactive); in the assay with SNB-19 it was 15.4 µM (inactive); with TK-10, 10.5 µM (inactive).

As for `O[C@H]1[C@H](O)[C@@H](O)[C@@]2(O)CC[C@@H]1N2`, the GI50 was > 100 µM (inactive) in the assay with A549; > 100 µM (inactive) with CCRF-CEM; > 100 µM (inactive) in the assay with DU-145; > 100 µM (inactive) in the assay on EKVX; > 100 µM (inactive) in the assay with HCC 2998; > 100 µM with HCT-15. In addition, the GI50 in the assay with MCF7, with MDA-MB-231, in the assay on MOLT-4, in the assay on NCI-H226, with NCI-H460 and in the assay on OVCAR-3 was > 100 µM (inactive) each time. The GI50 in the assay with SF-268, in the assay on SF-295, in the assay on SK-MEL-28, with SNB-19 and in the assay with TK-10 was > 100 µM (inactive) throughout.

On to `COC(=O)[C@@H]1COC(=O)N1`, for which the GI50 is > 100 µM (inactive) with A549; > 100 µM (inactive) with CCRF-CEM; > 100 µM (inactive) in the assay on DU-145; > 100 µM (inactive) with EKVX; > 100 µM (inactive) in the assay on HCC 2998; > 100 µM in the assay with HCT-15. The GI50 in the assay on MCF7, in the assay with MDA-MB-231, with MOLT-4, with NCI-H226, in the assay on NCI-H460 and in the assay on OVCAR-3 was > 100 µM (inactive) in each case. Further, the GI50 in the assay with SF-268, in the assay with SF-295, with SK-MEL-28, in the assay on SNB-19 and in the assay on TK-10 was > 100 µM (inactive) in each case.

As for `CCOC(=O)CN1C(=O)NC(C)(c2ccccc2)C1=O` (configuration not stated), the GI50 is > 100 µM (inactive) in the assay on A549; > 100 µM (inactive) in the assay on CCRF-CEM; > 100 µM (inactive) in the assay on DU-145; > 100 µM (inactive) with EKVX; > 100 µM (inactive) with HCC 2998; > 100 µM in the assay with HCT-15. Further, the GI50 with MCF7, in the assay with MDA-MB-231, in the assay with MOLT-4, with OVCAR-3, in the assay on RPMI-8226 and with SF-268 was > 100 µM (inactive) throughout. Moreover, the GI50 in the assay with SF-295, in the assay with SK-MEL-28, with SNB-19 and with TK-10 was > 100 µM (inactive) throughout.

With `COC(CNC(=O)CNC(=O)c1ccc(C(F)(F)F)cc1)OC`, the GI50 with A549 was > 100 µM (inactive); in the assay on CCRF-CEM, > 100 µM (inactive); in the assay on DU-145 it was > 100 µM (inactive); with EKVX it was > 100 µM (inactive); in the assay with HCT-15, > 100 µM; in the assay with MCF7 it was > 100 µM (inactive). Further, the GI50 in the assay on MDA-MB-231, in the assay on MOLT-4, with NCI-H226, with NCI-H460, with RPMI-8226 and in the assay on SF-268 was > 100 µM (inactive) each time. The GI50 is > 100 µM (inactive) with SF-295, 47.9 µM (inactive) in the assay on SNB-19, > 100 µM (inactive) in the assay on SR and > 100 µM (inactive) in the assay on TK-10.

As to `Cc1cc2occ(S(=O)(=O)NC(=O)Nc3ccc(Cl)cc3)c(=O)c2c(=O)o1`, the GI50 with A549 was > 100 µM (inactive); with CCRF-CEM it was > 100 µM (inactive); with DU-145 it was > 100 µM (inactive); in the assay on EKVX, > 100 µM (inactive); with HCC 2998 it was > 100 µM (inactive); in the assay with HCT-15, 9.18 µM. The GI50 with MCF7, in the assay on MDA-MB-231, with MOLT-4, with NCI-H226, in the assay on NCI-H460 and in the assay with OVCAR-3 was > 100 µM (inactive) each time. In addition, the GI50 in the assay with RPMI-8226, in the assay on SF-268, in the assay with SF-295, in the assay on SK-MEL-28, in the assay on SNB-19 and in the assay with TK-10 was > 100 µM (inactive) throughout.

For the compound `Cc1cc(O)c(C(c2ccncc2)c2c(O)cc(C)[nH]c2=O)c(=O)[nH]1`, the GI50 is > 100 µM (inactive) in the assay with A549; > 100 µM (inactive) in the assay on CCRF-CEM; > 100 µM (inactive) with DU-145; > 100 µM (inactive) with EKVX; > 100 µM in the assay with HCT-15; > 100 µM (inactive) with MCF7. Also, the GI50 in the assay with MDA-MB-231, with MOLT-4, with NCI-H460, in the assay on OVCAR-3, in the assay on RPMI-8226 and with SF-268 was > 100 µM (inactive) in each case. Further, the GI50 with SF-295, with SK-MEL-28, in the assay with SNB-19, in the assay with SR and in the assay on TK-10 was > 100 µM (inactive) each time.

In the case of `Nc1nc(Cl)cc(NCC2(CO)CC=CC2)n1`, the GI50 in the assay on A549 is > 100 µM (inactive); with CCRF-CEM, > 100 µM (inactive); in the assay on DU-145, > 100 µM (inactive); in the assay on EKVX, 71 µM (inactive); with HCC 2998, > 100 µM (inactive); in the assay with HCT-15, > 100 µM. Besides, the GI50 was > 100 µM (inactive) in the assay on MCF7; > 100 µM (inactive) in the assay on MDA-MB-231; > 100 µM (inactive) with MOLT-4; > 100 µM (inactive) in the assay with NCI-H226; > 100 µM (inactive) in the assay with NCI-H460; 80.2 µM (inactive) in the assay on OVCAR-3. Further, the GI50 with SF-268, with SF-295, in the assay on SK-MEL-28, in the assay with SNB-19 and in the assay with TK-10 was > 100 µM (inactive) throughout.

For the compound `Cc1nc2cc(F)c(F)cc2[nH]c1=O`, the GI50 in the assay on A549 was > 100 µM (inactive); in the assay with CCRF-CEM, > 100 µM (inactive); in the assay with DU-145, > 100 µM (inactive); in the assay with EKVX, 67.1 µM (inactive); in the assay on HCC 2998, > 100 µM (inactive); in the assay on HCT-15, > 100 µM. The GI50 in the assay on MCF7, with MDA-MB-231, in the assay on MOLT-4, in the assay with NCI-H226, in the assay with NCI-H460 and with OVCAR-3 was > 100 µM (inactive) each time. Further, the GI50 in the assay on RPMI-8226, with SF-268, with SF-295, with SK-MEL-28, with SNB-19 and with TK-10 was > 100 µM (inactive) throughout.

As to `COC1=NC(NC2OCC(O)C(O)C2O)=C(NC(C)=O)CN1C` (configuration not stated), the GI50 with A549 was > 100 µM (inactive); with CCRF-CEM, > 100 µM (inactive); with DU-145 it was > 100 µM (inactive); in the assay on EKVX, > 100 µM (inactive); in the assay with HCC 2998, > 100 µM (inactive); with HCT-15, > 100 µM. Further, the GI50 with MCF7, in the assay with MDA-MB-231, in the assay on MOLT-4, with NCI-H226, in the assay with NCI-H460 and with OVCAR-3 was > 100 µM (inactive) throughout. The GI50 in the assay with RPMI-8226, in the assay with SF-268, with SF-295, in the assay with SK-MEL-28, with SNB-19 and in the assay with TK-10 was > 100 µM (inactive) throughout.
